# Measured values as given in patent publication US9347013B2, “Natural oil derivative based thickener components used in grease compositions and processes for making such compositions” (Elevance Renewable Sciences, Inc., priority 2014, dated 2016).
# Assays:
# [1] = Log P (oil solubility) of grease complexing agents; settings: more oil soluble than azelaic acid
logP (physchem),oil solubility relative to azelaic acid [1],Structure (SMILES)
2.01,–,"O=C(O)CCCCCCCC(=O)O [Azelaic (C9), azelaic acid, reference compound]"
3,about 1.5 times,"O=C(O)CCCCCCCCCCCCCCCCC(=O)O [ERS ODDA (C18), octadecanedioic acid]"
